Data set [1] relates to SARS-CoV-2 pseudovirus entry into HEK-293T-hACE2 cells. Briefly: microbe, parasite or virus in culture. It counts as cell-based.
Data set [2] deals with AH109 (pAD-S-RBD+pBD-ACE2) cells. As to the kind of experiment: β-gal activity, ONPG assay in Y2H strain. Type of data set: cell-based, yeast. How it is done:
The ONPG assay was conducted following the protocol of the β-gal activity quantitative detection kit (GENMED S[…]. USA, Arlington, MA, USA). The principle is based on the chemical reaction that the colorless substrate ONPG can be hydrolyzed by β-gal to generate o-nitrophenol (ONP) with a bright-yellow appearance. Briefly, cells were pelleted in Eppendorf® tubes and resuspended in Z-buffer. Chloroform and 0.2% SDS were added to the cells in the tubes and mixed by briefly vortexing, followed by incubation at 28 °C for 5 min. Next, the ONPG solution was added for further incubation. The reaction was terminated after 10 min for p53-T and after 25 min for all other samples by the addition of chilled Na2CO3. Absorbance was recorded at 420 nm. Results were normalized against the cell density and incubation time using the following formula: U=OD420sample−OD420blank/OD600×t×V
Here, ‘t’ represents the incubation time duration, measured in min, while ‘V’ denotes the volume of the cell cultures utilized for the assay, expressed in mL. The experiments were repeated three times.

Data set [3] has as its system Vero cells. Briefly: CCK-8 cytotoxicity, Vero. It counts as cell-based, African green monkey. As to conditions: for Survival Rate (%) Vero: 50 μg/mL, 48 h, CCK-8. How it is done:
(§1) African green monkey kidney cells (Vero), Human Hepatocellular Carcinoma Cells (Huh-7), and Human Embryonic Kidney 293T (HEK-293T) cells were maintained in our laboratory. Cells were cultured in Dulbecco’s Modified Eagle’s Medium (DMEM, Hyclone, Logan, UT, USA) containing 10% fetal bovine serum (FBS, Gibco, Waltham, MA, USA) at 37 °C under 5% CO2 in a humidified environment.
(§2) The cytotoxicity of compounds against Vero, Huh-7, and HEK-293T cells was detected using the Cell Counting Kit-8. Briefly, the target cells were cultured at a density of 8000 cells per well in a 96-well plate containing DMEM enriched with 10% FBS. The cells were allowed to attach overnight, and the medium was replaced with a fresh serum-free DMEM containing 50 µg/mL of compounds. The cell viability was measured at 48 h post-drug treatment by the addition of the CCK-8 reagent (Biosharp, Hefei, Anhui, China), followed by incubation for 4 h. Finally, the absorbance of the cell culture was measured at 450 nm using a microplate reader (PerkinElmer, Waltham, MA, USA). The background absorbance of the blank media was also measured and subtracted from the sample reading. This experiment was repeated 3 times for each group. The obtained results were normalized to that of the control sample, which represented a cell viability of 100%.

The subject of data set [4] is HEK-293T cells. As to the kind of experiment: CCK-8 cytotoxicity, HEK-293T. The settings on record: for Survival Rate (%) HEK-293T: 50 μg/mL, 48 h, CCK-8. Type of data set: cell-based, Human. How it is done: as §1, §2
Data set [5] has as its system Huh-7 cells. As to the kind of experiment: CCK-8 cytotoxicity, Huh-7. It counts as cell-based, Human. As to conditions: for Survival Rate (%) Huh-7: 50 μg/mL, 48 h, CCK-8. How it is done: as §1, §2
Data set [6] concerns the target T1, AH109 (pAD-T+pBD-53) (UniProt P02340+P03070).
T1 construct: expressed in transfected cells; host or cells: yeast reporter strain AH109 carrying pAD-T and pBD-53
Briefly: Y2H growth inhibition (MIC) of control strain AH109 (pAD-T+pBD-53). The settings on record: SD/-Leu/-Trp/-His/-Ade dropout medium, 48 h. It counts as cell-based, yeast. As for the experimental part:
The Chemdiv screening compound library used for HTS assay in this research is a combination of synthetic compounds from Enamine (Kyiv, Ukraine) and Life Chemicals Inc. (Burlington, ON, Canada), which can be purchased from Shanghai Topscience Biotechnology Co., Ltd., China. The compounds were stocked at 10 mg/mL in DMSO and used for the screening assays as described. […] Next, 199 μL of the diluted culture and 1 μL of tested compounds (the final concentration was 50 μg/mL) or DMSO were added into each well. […] The final concentrations of the compounds ranged from 100 μg/mL to 0.78 μg/mL with 2-fold dilutions between concentrations.

Data set [7] deals with ACE2 (Homo sapiens, UniProt Q9BYF1). Briefly: SPR binding to immobilised ACE2.
ACE2, sequence (Q9BYF1 18-805): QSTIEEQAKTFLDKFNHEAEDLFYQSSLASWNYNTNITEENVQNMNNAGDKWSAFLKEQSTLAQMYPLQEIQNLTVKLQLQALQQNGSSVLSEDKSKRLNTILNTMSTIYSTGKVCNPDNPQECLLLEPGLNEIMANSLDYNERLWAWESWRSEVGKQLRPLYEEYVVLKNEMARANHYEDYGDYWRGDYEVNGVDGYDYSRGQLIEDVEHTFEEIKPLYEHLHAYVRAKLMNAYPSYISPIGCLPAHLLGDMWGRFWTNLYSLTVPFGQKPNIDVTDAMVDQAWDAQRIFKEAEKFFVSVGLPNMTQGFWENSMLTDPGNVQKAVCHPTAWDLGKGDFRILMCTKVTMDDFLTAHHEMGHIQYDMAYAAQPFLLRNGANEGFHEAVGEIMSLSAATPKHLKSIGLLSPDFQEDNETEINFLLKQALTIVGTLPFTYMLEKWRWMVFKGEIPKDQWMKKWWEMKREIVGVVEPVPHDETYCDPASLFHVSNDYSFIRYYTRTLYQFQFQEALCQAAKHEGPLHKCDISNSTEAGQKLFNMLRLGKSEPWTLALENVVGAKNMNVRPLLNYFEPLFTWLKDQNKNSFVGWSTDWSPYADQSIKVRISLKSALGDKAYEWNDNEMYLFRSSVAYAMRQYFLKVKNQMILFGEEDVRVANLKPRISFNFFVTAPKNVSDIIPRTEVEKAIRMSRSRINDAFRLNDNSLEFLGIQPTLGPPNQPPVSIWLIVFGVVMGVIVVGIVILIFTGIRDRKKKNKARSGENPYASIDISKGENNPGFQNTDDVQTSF
Data set [8] addresses SARS-CoV-2 S-RBD (Severe acute respiratory syndrome coronavirus 2, UniProt P0DTC2). As to the kind of experiment: biochemical. Type of data set: binding.
For data set [9], the system named is SARS-CoV-2 S-mediated cell–cell fusion (HEK-293T/SARS-CoV-2-S/EGFP with Vero). It counts as cell-based.
Data set [10] has as its target S-RBD+ACE2 complex (Severe acute respiratory syndrome coronavirus 2, UniProt P0DTC2). Also noted: species or system SARS-CoV-2.
In data set [11] the target is ACE2-S-RBD interaction (Severe acute respiratory syndrome coronavirus 2, UniProt P0DTC2). Type of data set: binding, SARS-CoV-2.
[12] abbreviates: Severe acute respiratory syndrome-related coronavirus, 18 h, read-out: Inhibition rate of pseudovirus entry.

SMILES strings stand for the structures.

T1 sequence (P03070 87-708 limits assumed): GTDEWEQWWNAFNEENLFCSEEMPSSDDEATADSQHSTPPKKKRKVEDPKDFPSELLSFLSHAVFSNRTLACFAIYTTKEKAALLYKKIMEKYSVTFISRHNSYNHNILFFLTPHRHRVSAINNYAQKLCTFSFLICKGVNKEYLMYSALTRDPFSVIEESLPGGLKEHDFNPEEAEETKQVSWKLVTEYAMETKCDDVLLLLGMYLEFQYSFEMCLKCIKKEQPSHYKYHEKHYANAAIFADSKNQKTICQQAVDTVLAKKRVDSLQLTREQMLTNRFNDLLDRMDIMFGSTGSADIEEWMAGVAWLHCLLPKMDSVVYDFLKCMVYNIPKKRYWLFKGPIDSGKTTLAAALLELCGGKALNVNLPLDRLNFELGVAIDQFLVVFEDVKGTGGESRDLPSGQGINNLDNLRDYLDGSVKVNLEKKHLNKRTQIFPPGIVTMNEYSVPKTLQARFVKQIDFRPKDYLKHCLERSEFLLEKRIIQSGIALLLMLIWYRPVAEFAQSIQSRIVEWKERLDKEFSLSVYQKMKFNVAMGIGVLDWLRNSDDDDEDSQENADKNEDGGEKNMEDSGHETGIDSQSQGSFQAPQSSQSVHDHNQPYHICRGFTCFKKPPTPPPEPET
T1 sequence (P02340 72-390 limits assumed): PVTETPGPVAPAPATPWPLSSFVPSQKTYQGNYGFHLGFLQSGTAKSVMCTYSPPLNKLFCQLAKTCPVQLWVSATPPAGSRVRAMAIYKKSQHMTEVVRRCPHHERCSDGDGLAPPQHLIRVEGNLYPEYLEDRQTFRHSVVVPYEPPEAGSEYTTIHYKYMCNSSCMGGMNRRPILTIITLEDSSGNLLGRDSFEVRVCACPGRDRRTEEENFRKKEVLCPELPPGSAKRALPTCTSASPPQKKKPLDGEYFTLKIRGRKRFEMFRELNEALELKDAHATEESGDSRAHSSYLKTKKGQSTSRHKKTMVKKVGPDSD

For the compound `Cc1ccc(N(Sc2ccc(Cl)cc2)C2C=CS(=O)(=O)C2)cc1` (stereo not shown) [IMB-4A], in data set [1], the “Inhibition of pseudovirus entry (in words)” value was “could not be observed”. The “Concentration showing clear inhibition of β-gal activity” value in data set [2] came to 6.25 µg/mL. For the same compound, in [3], the “Survival Rate (%) Vero” value was determined as 71%. Further, the “Survival Rate (%) HEK-293T” value in data set [4] is given as 18%. Moreover, the “Survival Rate (%) Huh-7” value in data set [5] was 25%. Besides, in data set [6], the “MIC against AH109 (pAD-T+pBD-53)” value turned out to be 12.5 μg/mL.
As to `CC(C)CCC[C@@H](C)[C@H]1CC[C@H]2[C@@H]3CC[C@H]4C[C@@H](O[C@@H]5O[C@H](COS(=O)(=O)O)[C@@H](O[C@H]6O[C@H](COS(=O)(=O)O)[C@@H](O[C@H]7O[C@H](COS(=O)(=O)O)[C@@H](O[C@H]8O[C@H](COS(=O)(=O)O)[C@@H](OS(=O)(=O)O)[C@H](OS(=O)(=O)O)[C@H]8OS(=O)(=O)O)[C@H](OS(=O)(=O)O)[C@H]7OS(=O)(=O)O)[C@H](OS(=O)(=O)O)[C@H]6OS(=O)(=O)O)[C@H](OS(=O)(=O)O)[C@H]5OS(=O)(=O)O)CC[C@]4(C)[C@H]3CC[C@]12C` [Pixatimod, reference compound], the “MIC against AH109 (pAD-T+pBD-53)” value in data set [6] is recorded as 6.25 μg/mL.
`O=C(c1ccc(N2CCCCS2(=O)=O)cc1)N1CCN(C(=O)c2ccco2)CC1` [IMB-1C]: the “Inhibition of pseudovirus entry (in words)” value in data set [1] was “concentration-dependent inhibition”. Moreover, in data set [1] (setting [12]), the inhibition at 10 µg/mL amounted to 42.5% and the inhibition at 20 µg/mL stood at 68.1%. The “Concentration showing clear inhibition of β-gal activity” value in [2] amounted to 0.39 µg/mL. For the same compound, the “Survival Rate (%) Vero” value in data set [3] is 105%. Moreover, the “Effect on cell proliferation of Vero” value in [3] (up to 50 µg/mL for 48 h) is reported as “did not affect”. The Kd in [7] was 1110 nM. Also, the “Survival Rate (%) HEK-293T” value in data set [4] is 88%. Moreover, the “Effect on cell proliferation of HEK-293T” value in data set [4] (up to 50 µg/mL for 48 h) is “did not affect”. Binding in [8] was characterised by a dissociation constant (Kd) of 1060 nM. The Syncytium formation result in data set [9] is “somewhat blocked in a dose-dependent manner”. In data set [5], the “Survival Rate (%) Huh-7” value is listed as 122%. Moreover, the “Effect on cell proliferation of Huh-7” value in [5] (up to 50 µg/mL for 48 h) was “did not affect”. For the same compound, in [10], the “Decrease of β-fold content” value came out at 9.46%, the “Increase of α-helix content” value was 6.85%, the “Secondary Structure Content (%) Random” value was found to be 32.93% and the “Secondary Structure Content (%) α-Helix” value is listed as 13.12%. In [10], the “Secondary Structure Content (%) β-Fold” value was 42.07% and the “Secondary Structure Content (%) β-Turn” value is given as 15.97%. For the same compound, the “SPR signal of ACE2 binding to S-RBD” value in [11] is reported as “the signal value decreased”. Besides, in data set [6], the “MIC against AH109 (pAD-T+pBD-53)” value is recorded as 3.125 μg/mL.

Usually inhibition stands for how much of the control response was suppressed. The term Kd denotes the free concentration of one partner at which half of the binding sites on the other are occupied at equilibrium, for simple one-to-one binding. Read a high Kd as a looser complex.

The record behind these values is PMC11765512 (International Journal of Molecular Sciences, 2025).
